The source of these data is patent US20030013711A1, “Chemical derivatives and their application as antitelomerase agents” (priority 2001, published 2003).

For orientation: IC50 means the point on the concentration scale where inhibition reaches its midpoint. A higher IC50 goes with a need for much substance.

In this experiment the test system is A549 cells. As to the kind of experiment: Cytotoxicity on human tumor line A549 (neutral red). The experiment is classed as cell-based. As to conditions: 96 hours incubation. The protocol:
The Cytotoxic Biological Activity on Human Tumor Lines is Determined According to the Following Experimental Protocol:
The human cell lines KB and A549 are obtained from the ATCC (American Type Culture Collection, Rockville, USA). The A549 cells are cultured as a layer in a culture flask in RPMI 1640 medium, L-glutamine to 2 mM, 200 U/ml penicillin, 200 μg/ml streptomycin and supplemented with 10% heat-inactivated fetal calf serum. The KB cells are cultured as a layer in a culture flask in Dulbelco's medium containing L-glutamine to 2 mM, 200 U/ml penicillin, 200 μg/ml streptomycin and supplemented with 10% heat-inactivated fetal calf serum.
The cells in exponential growth phase are trypsinized, washed in PBS 1×, and inoculated in 96-well microplates (Costar) at a concentration of 4×10^4 cells/ml for A549 and 1.5×10^4 cells/ml (0.2 ml/well) for KB cells. The cells are then incubated for 96 hours in the presence of variable concentrations of test compounds (10, 1, 0.1 and 0.01 μg/ml, each point being determined in quadruplicate). Sixteen hours before the end of the incubation, neutral red is added to a final concentration of 0.02% in each well. […] The cellular incorporation of the dye, which reflects the cell growth, is evaluated by spectrophotometry at a wavelength of 540 nm for each sample using a Dynatech MR5000 reading machine. […]

`CSc1nc(Nc2ccc3nc(C)cc(N)c3c2)nc(OC2CCN(C)CC2)n1` [Example 3, N6-[6-(1-methylpiperid-4-yloxy)-4-methylsulfanyl-[1,3,5]triazin-2-yl]-2-methylquinoline-4,6-diamine] gave a half-inhibitory concentration (IC50) of 6 µM.
